# Source: the OPERA property sets (Mansouri et al. 2018)
# Settings: not given
Compound,boiling point [°C],melting point [°C],log10 vapour pressure (mmHg),ready biodegradability,log10 Henry constant (atm·m³/mol),log10 Koa,log10 Koc (L/kg),log10 biodegradation half-life (days)
Cc1ccc(F)cc1[N+](=O)[O-],213,27,–,–,–,–,–,–
C[Si]1(C)O[Si](C)(C)O[Si](C)(C)O[Si](C)(C)O[Si](C)(C)O[Si](C)(C)O[Si](C)(C)O[Si](C)(C)O[Si](C)(C)O1,–,–,-4.75,–,–,–,–,–
Cc1ccc(-c2cc(C(F)(F)F)nn2-c2ccc(S(N)(=O)=O)cc2)cc1,–,158,–,–,–,–,–,–
CC(C)(C)C(=O)C=Cc1ccccc1,–,43,–,–,–,–,–,–
C=CCc1cc(OC)c2c(c1)OCO2,276,–,–,–,–,–,–,–
CC(C)(C)NSc1nc2ccccc2s1,–,–,-6.34,–,–,–,–,–
CC1(C)CCC(Cc2ccc(Cl)cc2)C1(O)Cn1cncn1 (stereo not given),–,112,-7.03,–,–,–,–,–
FC(F)(F)c1ccc(Br)cc1,160,–,–,–,–,–,–,–
O=c1c2ccccc2sc2ccccc12,373,209,–,–,–,–,–,–
CCCCCCCCCCCCCC(=O)N(CCO)CCO,–,–,–,readily biodegradable,–,–,–,–
Oc1cccc(-c2ccccc2)c1,–,78,–,–,–,–,–,–
CC(=O)Nc1ccc(S(=O)(=O)Nc2ccc([N+](=O)[O-])cc2)cc1,–,240,–,–,–,–,–,–
CC1=CC(=O)C=CC1=O,–,69,–,–,–,–,–,–
CC(=O)Oc1cc(C)ccc1C(C)C,245,–,–,–,–,–,–,–
N[C@@H](CCC(=O)N[C@@H](CS)C(=O)NCC(=O)O)C(=O)O,–,195,–,–,–,–,–,–
C=CCNC(=O)NCC=C,–,91.5,–,–,–,–,–,–
CCCCCCCCCCCCCN,276,27.4,–,–,–,–,–,–
CCCCCCNC(=O)c1ccc(O)c(O)c1,–,140,–,–,–,–,–,–
CCCCCCC=CCC(=O)O,–,18,–,–,–,–,–,–

Compound,boiling point [°C],melting point [°C],log10 vapour pressure (mmHg),ready biodegradability,log10 Henry constant (atm·m³/mol),log10 Koa,log10 Koc (L/kg),log10 biodegradation half-life (days)
O=[N+]([O-])c1ccc(O)c2ncccc12,–,180,–,–,–,–,–,–
Cc1ccc2ccc(C)nc2c1,264,61,–,–,–,–,–,–
C#CC(C)(O)C(C)C (stereo not given),134,–,–,–,–,–,–,–
CCCc1ssc(=S)c1C,–,49,–,–,–,–,–,–
C=C[Si](C)(C)OCC,99,–,–,–,–,–,–,–
CC(=O)N[C@@H](CCC(=O)O)C(=O)O,–,199,–,–,–,–,–,–
COC(C)(C)CCCC(C)C/C=C/C(C)=C/C(=O)OC(C)C (stereo not given),–,–,-4.63,–,–,–,–,–
O=C(O)C1CCCC1,212,-7,–,–,–,–,–,–
O=S(=O)(O)OCCOc1ccc(Cl)cc1Cl,–,170,–,–,–,–,–,–
CC(C)(OCc1ccc(-c2ccc(Cl)cc2)cc1)C(=O)O,–,154,–,–,–,–,–,–
N#CCc1ccc(Br)cc1,–,48,–,–,–,–,–,–
CC(C)(C(=O)O)n1nnc2ccccc21,–,182,–,–,–,–,–,–
COC(=O)Nc1nc2cc(C(=O)C3CC3)ccc2[nH]1,–,250,–,–,–,–,–,–
Cc1cc(C)c(C=O)c(C)c1,238,14,–,–,–,–,–,–
CCc1ccc[nH]1,164,–,–,–,–,–,–,–
CC(=O)Oc1ccc(C2(c3ccc(OC(C)=O)cc3)Oc3ccccc3NC2=O)cc1,–,190,–,–,–,–,–,–
Clc1ccc(Cl)c(Cl)c1Cl,254,47.5,-1.41,not readily biodegradable,-3.12,5.64,3.84,–
Nc1c(Cl)cc([N+](=O)[O-])cc1Cl,–,191,-5.92,not readily biodegradable,–,–,3,–
NNC(N)=O,–,96,–,–,–,–,–,–

Compound,boiling point [°C],melting point [°C],log10 vapour pressure (mmHg),ready biodegradability,log10 Henry constant (atm·m³/mol),log10 Koa,log10 Koc (L/kg),log10 biodegradation half-life (days)
Cc1ccc2c(c1)CCCC2,229,-40,–,–,–,–,–,–
COc1cc(C)c(/C=C/C(C)=C/C=C/C(C)=C/C(=O)O)c(C)c1C,–,229,–,–,–,–,–,–
N#Cc1cccnc1,207,51,-0.529,not readily biodegradable,-6.56,–,1.56,–
Cc1ccc(C)cc1,138,13.2,0.947,readily biodegradable,-2.16,3.79,2.41,0.954
O=C1NCCN1c1ncc([N+](=O)[O-])s1,–,261,–,–,–,–,–,–
NS(=O)(=O)c1ccc(SCCCO)c(F)c1,–,110,–,–,–,–,–,–
CN1CCC[C@H]1c1cccnc1,247,-79,-1.42,–,–,–,2.01,–
NCCC(=O)N[C@@H](Cc1c[nH]cn1)C(=O)O,–,260,–,–,–,–,–,–
CCC(=O)c1cc(C)ccc1O,–,2,–,–,–,–,–,–
Cc1ccccc1,111,-94.9,1.45,readily biodegradable,-2.18,–,–,0.301
CCCCCCCCCCCCCOC(=O)c1ccccc1C(=O)OCCCCCCCCCCCCC,–,–,–,not readily biodegradable,–,–,–,–
COc1ccccc1CC(=O)O,–,124,–,–,–,–,–,–
CCOCCOCCO,196,-76,-0.9,–,–,–,–,–
Cc1cc(N(C)C)nc(Cl)n1,–,87,–,–,–,–,–,–
Cc1cccc(C(=O)Cl)c1,220,-23,–,–,–,–,–,–
Oc1cc(O)c2ccccc2c1,–,124,–,–,–,–,–,–
FC(F)(I)C(F)(F)I,112,–,–,–,–,–,–,–
C=CC(C)(C)O,97,-28,–,–,-4.68,–,–,–
CCCCCCCCCCCN,242,17,–,–,–,–,–,–

# Same assay, conditions: fish
Compound,log10 BCF,log10 biotransformation half-life (days)
Cc1cc(C)c(O)c(C)c1,0.93,-1.3
Clc1ccc(C(c2ccccc2Cl)C(Cl)Cl)cc1 (stereo not given),–,1.65
COP(=S)(OC)Oc1cc(Cl)c(Br)cc1Cl,3.59,0.97
CC1(C)CCC(Cc2ccc(Cl)cc2)C1(O)Cn1cncn1 (stereo not given),–,0.23
Clc1ccc(Cl)c(Cl)c1Cl,3.38,0.69
Cc1ccc(C)cc1,1.17,–
Cc1ccccc1,0.92,–
